The values that follow come from patent US7740882B2, “Enhanced oral and transcompartmental delivery of therapeutic or diagnostic agents” (priority 2001, dated 2010).

Entries after “also recorded” stand apart in the source; their conditions may differ. Read-outs that look alike come from different tables or passages of the source. Non-standard residues stand in square brackets, D forms with d.

Data set [1] deals with T1, SMVT (Homo sapiens, UniProt Q9Y289).
T1 sequence (Q9Y289 1-635): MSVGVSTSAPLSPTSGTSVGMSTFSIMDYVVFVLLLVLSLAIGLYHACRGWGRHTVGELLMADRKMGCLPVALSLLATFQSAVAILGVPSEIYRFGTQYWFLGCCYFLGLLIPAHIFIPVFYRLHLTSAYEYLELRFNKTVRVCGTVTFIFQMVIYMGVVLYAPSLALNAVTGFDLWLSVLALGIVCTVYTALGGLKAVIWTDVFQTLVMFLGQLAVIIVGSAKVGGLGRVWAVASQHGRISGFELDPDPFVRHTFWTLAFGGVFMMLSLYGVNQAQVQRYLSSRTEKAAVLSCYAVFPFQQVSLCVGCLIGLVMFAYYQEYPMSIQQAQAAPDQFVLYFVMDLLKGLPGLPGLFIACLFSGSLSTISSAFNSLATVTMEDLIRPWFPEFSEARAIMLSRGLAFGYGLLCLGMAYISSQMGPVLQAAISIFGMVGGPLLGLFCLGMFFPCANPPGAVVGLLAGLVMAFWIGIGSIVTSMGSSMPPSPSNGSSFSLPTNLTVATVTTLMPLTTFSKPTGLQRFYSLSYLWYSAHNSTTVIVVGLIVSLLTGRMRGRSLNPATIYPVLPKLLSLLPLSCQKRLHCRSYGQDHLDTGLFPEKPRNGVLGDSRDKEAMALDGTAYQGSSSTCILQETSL
Conditions: read-out: Ki, competitive inhibition of RI-K(biotin)-Tat9 transport; Caco-2, inhibitors at 10 and 20 μM.
Source text: [formula] where Pe is the effective permeability of the substrate transported, Cs is the substrate concentration and Pm and Pc represent the passive and carrier-mediated component of the permeability. All data were initially fitted to a 3-parameter model (Pc, Pm, Km for Caco-2 studies, Jmax, Pm, Km for CHO studies). […] The data from inhibition studies were transformed into Lineweaver-Burke plots to determine the nature of the inhibition process (competitive, non-competitive). Subsequently, the inhibition constant (Ki) values were estimated using Dixon plots. Data used for the above plots were weighted using 1/SEM^2 (S.E.M=Standard Error of Mean). The kinetic parameters for CHO cell studies were estimated by performing non-linear regression using the equation J=Jmax*[C]/(Km+[C])+Pm*C, where J is the rate of permeant uptake, Pm is the passive uptake component and [C] is the substrate concentration. Data were weighted using 1/S.E.M^2.

In data set [2] the target is T1, SMVT. Conditions: read-out: Ki, competitive inhibition of biotin-PEG-3400 transport; Caco-2, inhibitors at 10 and 20 μM. In general terms: Caco-2 cells form a polarised layer with tight junctions and transporters.
Source text: Data Analysis. The Michaelis-Menten kinetic parameters for the Caco-2 cell monolayer transport studies were estimated by performing weighted non-linear regression with Scientist software (MicroMath, Utah) using the following equation: Pe=Pm+Pc/(1+C/Km), where Pe is the effective permeability of the substrate transported, C is the substrate concentration and Pm and Pc represent the passive and carrier-mediated component of the permeability. The data from inhibition studies were transformed into Lineweaver-Burke plots to determine the nature of the inhibition process (competitive, non-competitive). […] Data used for the above plots were weighted using 1/S.E.M.^2. The kinetic parameters for CHO cell studies were estimated by performing non-linear regression using the equation J=Jmax*[C]/(Km+[C]), where J is the rate of permeant uptake, Jmax is the maximal uptake velocity and [C] is the substrate concentration. Data were weighted using 1/S.E.M.^2. Statistical analyses were performed using Jandel SigmaStat, version 2.03. One-way analysis of variance was used to test the difference in the mean values of uptake using p<0.05 as the significance level for all tests.
For data set [3], the target named is T1, SMVT. Put plainly: Inhibition of substrate uptake in CHO/hSMVT cells by 50 μM SMVT substrates. Type of data set: in vitro ADME. Set-up: expressed in transfected cells; host or cells: CHO cells (ATCC), transient Lipofectamine transfection; plasmid was a gift of Dr. Puttur D. Prasad.
The test system of a further data set is superoxide production. Conditions: literature value; read-out: EC50 for superoxide production (Klinker et al., 1996); cited from earlier work.
For data set [4], the target named is T2, human sodium dependent multivitamin transporter, hSMVT (Homo sapiens, UniProt Q9Y289).
T2 sequence (Q9Y289 1-635): T1 sequence (Q9Y289 1-635)
Nature of the data set: Uptake in CHO cells transiently transfected with hSMVT (CHO/hSMVT). Conditions: not concentration dependent controls. The method, then:
(§1) CHO Cell Uptake Studies CHO cells transiently transfected with hSMVT (CHO/hSMVT) were washed twice with 25 mM uptake buffer, containing 25 mM Hepes/Tris pH 7.5, 140 mM NaCl, 5.4 mM KCl, 1.8 CaCl2, 0.8 mM MgSO4 and 5 mM glucose, approximately 48 hours post-transfection. Subsequently, the cells were incubated with the permeant at 37° C. for 10 minutes. Uptake was stopped by washing the cells thrice with ice-cold buffer. Non-specific uptake was measured in parallel experiments with the control pSPORT vector-transfected CHO cells. Finally, the cells were solubilized by 0.1% v/v Triton X-100, and 0.6 ml was used for scintillation counting. From the remaining volume, 10 μl of solution was taken from each well and protein concentration was determined using the Bio-Rad reagent according to the Bradford technique [M. Bradford, A rapid and sensitive method of quantitation of microgram quantities of protein utilizing the principle of protein-dye binding, Anal. Biochem. 72 (1976) 248]. Bovine serum albumin was used as the standard.
Parallel uptake experiments were performed using CHO/pSPORT control cells.
as §1, with “hSMVT” for “hSMVT (CHO/hSMVT)”, “glucose.” for “glucose, approximately 48 hours post-transfection.”, “Washing” for “Uptake was stopped by washing”, “three times” for “thrice”, “buffer stopped drug uptake.” for “buffer.”, “manufacturer's instructions.” for “Bradford technique [M. Bradford, A rapid and sensitive method of quantitation of microgram quantities of protein utilizing the principle of protein-dye binding, Anal. Biochem. 72 (1976) 248].”
as §1, with “Studies.” for “Studies”, “glucose.” for “glucose, approximately 48 hours post-transfection.”, “manufacturer's instructions.” for “Bradford technique [M. Bradford, A rapid and sensitive method of quantitation of microgram quantities of protein utilizing the principle of protein-dye binding, Anal. Biochem. 72 (1976) 248].”

The test system of a further data set is CHO/pSPORT cells. Nature of the data set: Non-specific uptake in vector-transfected control CHO/pSPORT cells. The method, then: as §1, with “From the remaining volume, 10 μl of solution was taken from each well and protein concentration was determined using the Bio-Rad reagent according to the Bradford technique [M. Bradford, A rapid and sensitive method of quantitation of microgram quantities of protein utilizing the principle of protein-dye binding, Anal. Biochem. 72 (1976) 248].” left out
CHO Cell Uptake Studies CHO cells transiently transfected with hSMVT were washed twice with 25 mM uptake buffer, containing 25 mM Hepes/Tris pH 7.5, 140 mM NaCl, 5.4 mM KCl, 1.8 CaCl2, 0.8 mM MgSO4 and 5 mM glucose. […] Non-specific uptake was measured in parallel experiments with the control pSPORT vector-transfected CHO cells. […] From the remaining volume, 10 μl of solution was taken from each well and protein concentration was determined using the Bio-Rad reagent according to the manufacturer's instructions. […]
CHO Cell Uptake Studies. […] Non-specific uptake was measured in parallel experiments with the control pSPORT vector-transfected CHO cells. […]

Data set [5] concerns bovine brain microvessel endothelial cells (BBMECs). Nature of the data set: Transport (permeability) across BBMEC monolayers, in vitro BBB model. The method, then:
Non-biotinylated PEGs were used in the control studies.
Isolation and culture of BBMECs. Bovine Brain Microvessel Endothelial Cells (BBMECs) were used as an in vitro model of BBB. BBMECs were isolated from bovine brain by a two-step enzymatic method and the cells were cultured on collagen coated Transwell™ plates or polystyrene plates in an atmosphere of 95% air and 5% CO2 at 37° C. Transendothelial electrical resistance (TEER) and several molecular markers were used to validate the integrity of the cell culture system.
The cells were cultured on 12-well Transwell™ filters for 7-8 days and transport was evaluated. […] All studies were performed at 37° C.

Data set [6] addresses T3, fMLF receptor on differentiated HL-60 cells (Homo sapiens, UniProt P21462).
T3 construct: endogenous in cells; host or cells: HL-60 cells differentiated with 1.3% DMSO for 48 h; whole cells
T3 sequence (P21462 1-350): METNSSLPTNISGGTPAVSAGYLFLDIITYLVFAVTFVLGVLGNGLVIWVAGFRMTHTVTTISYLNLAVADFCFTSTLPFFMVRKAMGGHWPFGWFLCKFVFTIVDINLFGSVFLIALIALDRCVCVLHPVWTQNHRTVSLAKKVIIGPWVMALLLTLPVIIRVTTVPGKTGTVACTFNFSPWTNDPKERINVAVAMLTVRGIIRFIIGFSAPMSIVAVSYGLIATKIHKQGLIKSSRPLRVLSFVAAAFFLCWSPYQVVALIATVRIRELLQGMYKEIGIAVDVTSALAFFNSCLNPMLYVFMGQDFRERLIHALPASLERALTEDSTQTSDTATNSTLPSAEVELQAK
Put plainly: Competitive receptor binding assay with fML[3H]F.

For the next data set, the system named is Jurkat T-cells. Nature of the data set: Uptake of DIG conjugates by Jurkat cells (DIG ELISA). It is filed as cell-based, human. Conditions: 333 nM, 30 min. As to the method:
(§2) Uptake by HL-60, Jurkat and Peritoneal Cells. Human Jurkat T-cell growth conditions were the same as for HL-60 cells, except that the subcultivation ratio was 1:3. Jurkat cells (2×10^5) or fully differentiated HL-60 cells were washed twice with PBS and incubated in binding buffer (see above) with conjugate for 30 min at 37° C. Each conjugate (1 μg, dissolved at a concentration of 333 nM) was used in these experiments. Cells were lysed, the membranes and cell debris were removed by centrifugation (5 min. at 14,000×g) and the enzyme-linked immunosorbent assay (ELISA) for DIG was performed on the supernatant as described below. In order to study primary peritoneal cells, BALB/c mice were injected in the peritoneal cavity with 5 μg of PEG/A-DIG4-fMLF4 (n=3 mice), or PEG/A-DIG4 (n=4 mice). After 1 h, the cavity was flushed with medium and cells were collected and washed twice with cold PBS, as described above.
(§3) Cells were resuspended in 100 μL of PBS, containing 0.6% Tween 20, vortexed briefly and kept on ice for 30 min. […] Uptake of DIG was determined by ELISA of the supernatant. […] DIG content was proportional to the difference in absorbance at 495 nm and 450 nm. […] In order to account for the potential different amounts of peritoneal cells from each mouse, the results were normalized to the amount of protein, as measured with the Bradford assay (BioRad, Hercules Calif.).

Data set [7] concerns differentiated HL-60 cells. Nature of the data set: Intracellular calcium assay (45Ca release from intracellular stores). It is filed as cell-based, human. Conditions: differentiated HL-60 cells, calcium release; read-out: Cell Activation EC50. As to the method:
Intracellular Calcium Assay. HL-60 cells (2×10^5 cells/mL) were grown in the presence of 1.3% DMSO for 5 days. For each time course experiment, 2×10^6 cells were resuspended in 5 mL of HBSS containing 2 mCi/mL of ^45CaCl2 as the sole source of calcium. After 90 min incubation at 37° C., cells were washed twice as above with cold HBSS. […] Cell pellets were treated with 0.5% Triton X-100/0.1 M NaOH and centrifuged in tubes containing 0.3 mL of 10% sucrose and radioactivity associated with the pellets was measured; this represents vesicle-associated ^45Ca. The top portion of the tube, which contained the cytoplasmic ^45Ca was also measured.
(In general: Calcium flux is commonly read through the fluorescence of an indicator in the cells.)

Data set [8] relates to peritoneal cells (macrophages). Put plainly: Uptake by peritoneal cells after intraperitoneal injection (DIG ELISA). Type of data set: in vivo, BALB/c mice. The method, then:
as §2, §3
On the technique in general: ELISA stands for enzyme-linked immunosorbent assay.

In data set [9] the test system is differentiated HL-60 cells. Put plainly: Uptake of DIG conjugates by differentiated HL-60 cells (DIG ELISA). Type of data set: cell-based, human. Conditions: 333 nM, 30 min, 37° C. The method, then:
as §2, §3

Procedure for Caco-2 cell monolayers: Caco-2 Cell Transport Studies An Ussing-type diffusion chamber system (Harvard Apparatus, Natick, Mass.) was used to perform transport studies. The apical solution was a MES Ringer's buffer (pH 6.5) consisting of 114.0 mM NaCl, 5.0 mM KCl, 1.1 mM MgSO4, 1.25 mM CaSO4, and 15 mM 2-(N-morpholino)ethanesulfonic acid (MES). The basolateral solution was a Ringer's buffer (pH 7.4) consisting of 114.0 mM NaCl, 5.0 mM KCl, 1.65 mM Na2HPO4, 0.3 mM NaH2PO4, 25 mM NaHCO3, 1.1 mM MgSO4, and 1.25 mM CaSO4. Both buffers contained 25 mM glucose and were adjusted to 290 mOsm/kg using a vapor pressure osmometer (Wescor Inc, Logan, Utah). For transport experiments using filters with cell monolayers, the inserts were rinsed with Ringer's buffet containing 25 mM glucose three times over a 20 min period at room temperature. The TEER was measured for each monolayer before it was mounted onto the diffusion chamber, which was pre-warmed to 37° C. by placement on the heating blocks. The volume of each half-chamber was 5 ml and the surface area of the Snapwell™ filters available for drug transport was 1 cm^2. […] The donor solution consisted of radiolabeled permeant in the apical buffer [apical (AP) to basolateral (BL) study]. Starting at 30 min, samples were taken from the receptor chamber every 15 min until the end of the experiment (105 min). A minimum of three monolayers was used to determine the permeability of test compound in each study and sample analysis was performed using scintillation counting (Perkin Elmer, Gaithersburg, Md.).
The Michaelis-Menten kinetic parameters of Caco-2 and CHO cell transport were then estimated using non-linear regression.
Prior to experimentation, diffusion chambers mounted with the Snapwells™ containing Caco-2 cells were equilibrated at 5° C., 10° C., 15° C., 25° C. and 37° C.
[formula] where Pe is the effective permeability of the substrate transported, Cs is the substrate concentration and Pm and Pc represent the passive and carrier-mediated component of the permeability. All data were initially fitted to a 3-parameter model (Pc, Pm, Km for Caco-2 studies, Jmax, Pm, Km for CHO studies).
Caco-2 Cell Transport Studies An Ussing-type diffusion chamber system (Harvard Apparatus, Natick, Mass.) was used to perform transport studies. The apical solution was a MES Ringer's buffer (pH 6.5) consisting of 114.0 mM NaCl, 5.0 mM KCl, 1.1 mM MgSO4, 1.25 mM CaSO4, and 15 mM 2-(N-morpholino)ethanesulfonic acid (MES). The basolateral solution was a Ringer's buffer (pH 7.4) consisting of 114.0 mM NaCl, 5.0 mM KCl, 1.65 mM Na2HPO4, 0.3 mM NaH2PO4, 25 mM NaHCO3, 1.1 mM MgSO4, and 1.25 mM CaSO4. Both buffers contained 25 mM glucose and were adjusted to 290 mOsm/kg using a vapor pressure osmometer (Wescor Inc, Logan, Utah). For transport experiments using filters with cell monolayers, the inserts were rinsed with Ringer's buffer containing 25 mM glucose three times over a 20 min period at room temperature. The TEER was measured for each monolayer before it was mounted onto the diffusion chamber, which was pre-warned to 37° C. by placement on the heating blocks.

For orientation: Ki means a measure of affinity in units of concentration, obtained from inhibition or displacement. Regarding `N[C@@H](CCCCNC(=O)CCCC[C@@H]1SC[C@@H]2NC(=O)N[C@@H]21)C(=O)O` [biocytin], the Ki on SMVT [1] is 3270 nM; on SMVT [2] it was 14000 nM. The “inhibition of RI-K(biotin)-Tat9 uptake” value at SMVT [3] (0.1 μM RI-K(biotin)-Tat9, inhibitor 50 μM) is “significantly inhibited; also recorded: significantly lowered (p<0.001)”. Moreover, the “inhibition of biotin-PEG-3400 uptake” value against SMVT [3] (0.1 μM biotin-PEG-3400, inhibitor 50 μM) is recorded as “significantly (p<0.01) inhibited”. At SMVT [3] (0.1 μM conjugate, inhibitor 50 μM), the “inhibition of PEG:(RI-K(biotin)-Tat9)8 uptake” value was “significantly lower (p<0.05)”.
Broadly, the EC50 is the concentration that produces a half-maximal response. Take `CSCC[C@H](NC=O)C(=O)N[C@@H](CC(C)C)C(=O)N[C@@H](Cc1ccccc1)C(=O)O` [fMLF, N-formyl-methionine-leucine-phenylalanine]: in the data set on superoxide production, the EC50 is 15 to 30 nM.
As a reminder, the Papp is a coefficient for how fast a substance crosses the barrier. Low readings indicate slow passage, high ones fast passage. As for “N-acetyl-D-Lys-D-Arg-D-Arg-D-Arg-D-Gln-D-Arg-D-Arg-D-Lys-D-Lys-D-Arg-NH2 (Ac-[dK][dR][dR][dR][dQ][dR][dR][dK][dK][dR]-NH2; SMILES CC(=O)N[C@H](CCCCN)C(=O)N[C@H](CCCNC(=N)N)C(=O)N[C@H](CCCNC(=N)N)C(=O)N[C@H](CCCNC(=N)N)C(=O)N[C@H](CCC(N)=O)C(=O)N[C@H](CCCNC(=N)N)C(=O)N[C@H](CCCNC(=N)N)C(=O)N[C@H](CCCCN)C(=O)N[C@H](CCCCN)C(=O)N[C@H](CCCNC(=N)N)C(N)=O) [RI-K-Tat9]”, the “uptake in CHO/hSMVT cells” value in [4] is given as less than 1 pmol/mg protein/10 min. For the same molecule, in the data set on CHO/pSPORT cells, the “uptake in CHO/pSPORT cells” value is given as less than 1 pmol/mg protein/10 min. Besides, the “Papp” value in [5] is 7.3 ×10⁻⁶ cm/s.
As for PEG-3350 [reference compound], the “absorptive/effective permeability (Pe)” value in the data set on Caco-2 cell monolayers was roughly 1 ×10⁻⁶ cm/s.
As for “PEG/A-fMLF4-DIG4: linear PEG-aspartate copolymer bearing four fMLF and four digoxigenin residues”, the Kd in data set [6] (Kd multiplied by average number of fMLF moieties, read-out: Relative Avidity Kd/fMLP) was 4.8 nM; in [6] (differentiated HL-60 cells, competition with fML[3H]F, read-out: Avidity Kd), 1.2 nM. For the same molecule, the “Avidity Activation EC50/Kd” value in data set [6] (ratio of EC50 (calcium) to Kd) stood at 4.92. Also, the conjugate accumulated with Jurkat T-cells is on record as 1.3%. Further, the EC50 in data set [7] came out at 5.9 nM. Also, the “administered conjugate taken up by peritoneal cells” value in data set [8] (BALB/c mice, 5 μg i.p., 1 h) stood at 17%. In addition, the “DIG accumulation, fold over non-targeted conjugate PEG/A-DIG8” value in data set [8] (non-activated peritoneal cells) is listed as roughly 5 fold. For the same molecule, the “conjugate bound and/or internalized” value in [9] is 18%.
